Data set [1] can be described thus: Metabolic stability assay, human liver microsomes. The following applies: for Remaining in Human liver microsomes (Sup Fig.6e): in % (unit assumed). Here is the method:
7. Metabolic stability assay. The metabolic profile of NHWD-870 was determined using mouse, rat, dog, monkey, and human liver microsomes using the protocols […]
No. Compound ID Exat Mass Stock Conc.
1) 100 mM potassium phosphate buffer, PH7.4; 2) 10mM MgCI2
1) Intermediate solution: Dilute 5 μL of compound or control from stock solution (10 mM) with 45 uL DMSO,then mixed with 450 μL 1:1 Methanol/Water (Conc.: 10 0 […]
2) Working solution: Dilute 50 μL from intermediate solution with 450 μL 100 mM potassium phosphate buffer (Conc.: 10 μM, 4.5%MeOH)
(3) NADPH regenerating system (final Isocitric dehydrogenase conc.= 1 unit/mL at […]
1) β-Nicotinamide adenine dinucleotide phosphate, Vendor: sigma Cat. No. N0505
2) Isocitric acid, Vendor: Sigma Cat. No. I1252
3) Isocitric dehydrogenase, Vendor: sigma Cat. No. I2002
(4) Liver microsome solution preparation (final concentration o f 0.5 mg protein/mL) […]
Cold ACN including 100 ng/mL Tolbutamide and 100 ng/mL Labetalol as internal […]
1) Add 10 μL compound or control working solution/well to all plates (T0, T5, T10, T20, T30, T60, NCF60) except matrix blank.
2) Dispense 680 μL/well microsome solution to 96-well plate as reserv oir according to […]
plate map. Then add 80 μL/well to every plate by Apricot, incubate the mixture of microsome solution and compound at 37℃ for about 10 min.
3) Add 10 μL 100 mM potassium phosphate buffer/well to NCF60, incubate at 37℃, […]
4) After pre-warming, dispense 90 μL/well NADPH regenerating system to 96-well plate as reservoir according to the plate map. Then add 10 μL/well to every plate by Apricot to start reaction.
5) Incubate at 37℃, start timer 2.
6) Add 300 (μL/well) stop solution (cold in 4℃, including 100 ng/mL Tolbutamide and 100 ng/mL Labetalol) to terminate the reaction.
7) The sampling plates are shaked for approx 10 min.
8) Samples are centrifuged at 4000 rpm for 20 min under 4℃.
9) While centrifuging, load 8×new 96-well plate with 300 μL HPLC water, then transfer 100 μL supernatant, mixed for LC/MS/MS.
Use equation of first order kinetics to calculate t1/2 and Clin t(mic): […]
(§1) Equation of first order kinetics: […]
(In general: Liver microsomes are vesicles of endoplasmic reticulum, rich in cytochrome P450 enzymes.)

Data set [2] in a line: Equilibrium dialysis assay, CD-1 mouse plasma. The method, then: The concentration was calculated using the peak area ratio of analyte and internal […]
The results were calculated by the following equations:
% Unbound = 100 *FC / TC, % Bound = 100 * (1-FC / TC)
% Recovery = 100 * (FC + TC) / T0
TC = Total compound concentration as determined by the calculated concentration on the retentate side of the membrane
FC = Free compound concentration as determined by the calculated concentration on the dialysate side of the membrane […]
as §1
8. Equilibrium dialysis assay. Binding with plasma protein and recovery rate of NHWD-870 were performed with human, CD-1 mouse and SD rat plasma as […]
described 2. […] The concentration was […]
calculated using the peak area ratio of analyte and internal standard. The results were calculated by the following equations: % Unbound = 100 *FC / TC, % Bound = 100 * (1-FC / TC); % Recovery = 100 * (FC + TC) / T0; TC = Total compound concentration as determined by the calculated concentration on the retentate side of the membrane; FC = Free compound concentration as determined by the (1 picture or pasted object on this page, not shown here) […]
calculated concentration on the dialysate side of the membrane; T0 = To t a l compound concentration as determined before dialysis. […]
10. hERG channel assay. […]
HEK293 cell line stably
A general note: In equilibrium dialysis free small molecules cross a membrane that holds back macromolecules.

Another data set relates to TAMs. Description: Ki67 FACS of TAMs induced by CSF1. The data set is classed as cell-based, mouse. Here is the method:
Flow cytometry analyses were performed using antibodies listed in Supplementary Table 8. For cell surface markers, mouse TAM suspensions were stained with mouse APC-CD45, FITC-CD11b, PE-F4/80 or APC-F4/80, CD68, and PE-CD206 antibodies for 15 min on ice. For Ki67 staining, cells were fixed in 4% paraformaldehyde and stained with FITC-Ki67. Isotype matching antibody served as the negative control. Flow cytometry was performed on a FACSCalibur (BD Biosciences). Data were analyzed with BD CellQuest Pro software version 5.1.
Supplementary Figure 14. NHWD-870 and BRD4 deletion partially inhibite d prolifera tion of TAMs […]
(a) CD45+CD11b+F4/80 + TAMs in the orthotopic B16 melanoma model were harvested from tumors. Shown are representative FACS plots of TAMs. (b,c) Representative FACS plots (b) and quantification (c) of Ki67+ macrophages treated with 50 ng/ml CSF1, and DMSO or 25 or 50 nM NHWD-870. […]
TAMs induced by CSF1. (a-c) CD11b+F4/80+ macrophages in the orthotopic B16F10 melanoma model were harvested from tumor tissues. Shown are representative CD45+, CD11b+, F4/80+ FACS plots (a) and quantification of the percentage of Ki67+ cells after treatment with DMSO or NHWD-870 dependent on CSF1 stimulation (b,c). (d-g) FACS plots and quantification of the percentage of Ki67+ cells after CRISPR/Cas9-mediated BRD4 knockout (d,e) and c-MYC knockout (f,g) in CD11b+F4/80+ macrophages. CSF1 is added at the indicated concentration.
Please also see response to comment # 4 about our 2D assays, in which we used colony number to quantify the number of TAMs.
NHWD-870 treatment and the main differences are colony size.
6. For comparison purposes, it would be a good idea to compare the direct effect of NHWD-870 on in […]
marrow derived macrophage proliferation and gene expression in vitro). […]

[3] abbreviates: human, liver microsomes, pH 7.4.

One may read the CLint scaled as the capacity of the preparation to metabolise the compound, expressed as a volume cleared per time. A higher CLint scaled goes with rapid turnover. As usually defined, the half-life is the time needed for the level to fall by half in the phase considered. A lower half-life goes with rapid decline. A word on the microsomal CLint: it is the capacity of the preparation to metabolise the compound, expressed as a volume cleared per time. Read a high microsomal CLint as faster metabolism. As a reminder, the fraction unbound is free concentration divided by total concentration. As to `Cc1nnn(C)c1-c1cnc2c3c4cnn(C)c4ccc3n([C@H](c3ccccc3)C3CCOCC3)c2c1` [NHWD-870], in data set [1] (human liver microsomes), the “Remaining (T=60min)” value is 23.6%. Also, the “Remaining (*NCF=60min)” value in data set [1] (human liver microsomes, no cofactor) amounted to 74.4%. This compound also came in with a CLint scaled at 1 µM in data set [1] (setting [3]) of 45.3 mL/min/kg. Further, the half-life at 1 µM in data set [1] (setting [3]) was 27.6 min; in data set [1] (mouse, rat, dog, monkey, human, liver microsomes, pH 7.4), 21 to 39 min. For the same compound, the intrinsic metabolic clearance (microsomal CLint) at 1 µM in data set [1] (human, microsomes, pH 7.4) stood at 50.3 µL/min/mg. Also, the “Remaining in Human liver microsomes (Sup Fig.6e)” value in data set [1] (time 0) came out at 100; in data set [1] (time 5) it was 96.274; in data set [1] (time 10) it was 76.421; in data set [1] (time 20), 52.125; in data set [1] (time 30) it was 39.904; in data set [1] (time 60), 23.628. Also, the fraction unbound in data set [2] (CD-1, mouse, plasma) came out at 0.026. Besides, in data set [2] (CD-1, mouse, plasma), the recovery turned out to be 95.2%. Moreover, the “% Bound” value in data set [2] (CD-1 mouse plasma, equilibrium dialysis) is 97.4%. Also, the “decrease of TAMs proliferation (Ki67 FACS)” value in the data set on TAMs (TAMs induced by CSF1) was ~ 50%. Also, the “fold decrease of CSF1 induced growth of macrophages” value in the data set on TAMs (direct treatment of TAMs in 2D growth assays) is recorded as less than 2 fold.

The values are drawn from publication PMC7156724, “Potent BRD4 inhibitor suppresses cancer cell-macrophage interaction” (Nature Communications, 2020).
